SMILES strings stand for the structures.

Test [1] relates to c-myc (DNA, G4) TGAGGGTGGGTAGGGTGGGTAA
The test is described as follows: 1H NMR imino titration. The following applies: 2 mM K+ (KCl), 100 µM DNA, H2O/D2O 90/10, 25 °C.

Test [2] concerns Duplex (DNA, duplex) CAATCGGATCGAATTCGATCCGATTG
Put plainly: CD melting. The following applies: 2 mM K+ (KCl); 10 mM Tris-HCl pH 7.4, 50 µM drug, 5 µM DNA.

In test [3] the test system is c-myc (DNA, G4) TGAGGGTGGGTAGGGTGGGTAA
The test is described as follows: CD melting. As to conditions: 2 mM K+ (KCl); 10 mM Tris-HCl pH 7.4, 50 µM drug, 5 µM DNA.

Test [4] concerns bcl2 (DNA, G4) AGGGGCGGGCGCGGGAGGAAGGGGGCGGA
Put plainly: CD melting. As to conditions: 2 mM K+ (KCl); 10 mM Tris-HCl pH 7.4, 50 µM drug, 5 µM DNA.

Test [5] concerns c-kit (DNA, G4) CGGGCGGGCGCGAGGGAGGGG
Put plainly: CD melting. The following applies: 2 mM K+ (KCl); 10 mM Tris-HCl pH 7.4, 50 µM drug, 5 µM DNA.

For test [6], the system named is KRAS (DNA, G4) GGGAGGGAGGGAAGGAGGGAGGGAGGGA
The test is described as follows: CD melting. The following applies: 2 mM K+ (KCl); 10 mM Tris-HCl pH 7.4, 50 µM drug, 5 µM DNA.

The test system of test [7] is VEGF (DNA, G4) CCCGGGGCGGGCCGGGGGCGGGGTCCCGGCGGGGCGGAG
Put plainly: CD melting. As to conditions: 2 mM K+ (KCl); 10 mM Tris-HCl pH 7.4, 50 µM drug, 5 µM DNA.

Test [8] relates to labeled c-myc (DNA, G4) TGAGGGTGGGTAGGGTGGGTAA
The test is described as follows: FRET melting. The following applies: 2 mM K+ (KCl); 2 µM HCQ, ~25 nM DNA.

As to `Nc1ccnc2cc(Cl)ccc12`, the binding result in test [1] is reported as “yes”.
`CCN(CC)CCCC(C)Nc1ccnc2cc(Cl)ccc12` (stereo not shown): the binding result in test [2] is listed as “no”.
Take `CCN(CCO)CCCC(C)Nc1ccnc2cc(Cl)ccc12` (stereo not shown): the ΔTm in test [3] is ~ 17 °C; in test [4] it was 7 °C; in test [5], 11 °C; in test [6], 12 °C; in test [7] it was 9 °C. Further, the binding result in test [2] is recorded as “no”; in test [1] (5' end stacking), “yes”. Besides, the Tm increase in test [8] was ~ 12 °C.

The values above are taken from PMC12554177 (2025).
